Assay results taken from ChEMBL document CHEMBL5465560, “Selectivity Literature for EUbOPEN Chemogenomic Library” (2024).
Where a chain is given by its changes, count along the chain named. Blank lines part the entries; values can stand above or below the compound they belong to.

How the values were obtained:
[1] = molecular target: STE20/SPS1-related proline-alanine-rich protein kinase (Homo sapiens) (UniProt Q9UEW8); test: Selectivity interaction (Ambit KINOMEscan and KiNATiv profiling in Jurkat cells) EUB0000090b STK39; assay type: cell-based; conditions: at 1 µM
[2] = molecular target: Receptor-type tyrosine-protein kinase FLT3 (Homo sapiens) (UniProt P36888); test: (§1) Selectivity interaction (KinomeScan (DiscoverX)) EUB0000655a FLT3; conditions: at 10 µM
[3] = tested on: T1, Receptor-type tyrosine-protein kinase FLT3 (Homo sapiens), P36888 [D835H]; test: as §1; conditions: at 10 µM
T1 sequence (whole entry): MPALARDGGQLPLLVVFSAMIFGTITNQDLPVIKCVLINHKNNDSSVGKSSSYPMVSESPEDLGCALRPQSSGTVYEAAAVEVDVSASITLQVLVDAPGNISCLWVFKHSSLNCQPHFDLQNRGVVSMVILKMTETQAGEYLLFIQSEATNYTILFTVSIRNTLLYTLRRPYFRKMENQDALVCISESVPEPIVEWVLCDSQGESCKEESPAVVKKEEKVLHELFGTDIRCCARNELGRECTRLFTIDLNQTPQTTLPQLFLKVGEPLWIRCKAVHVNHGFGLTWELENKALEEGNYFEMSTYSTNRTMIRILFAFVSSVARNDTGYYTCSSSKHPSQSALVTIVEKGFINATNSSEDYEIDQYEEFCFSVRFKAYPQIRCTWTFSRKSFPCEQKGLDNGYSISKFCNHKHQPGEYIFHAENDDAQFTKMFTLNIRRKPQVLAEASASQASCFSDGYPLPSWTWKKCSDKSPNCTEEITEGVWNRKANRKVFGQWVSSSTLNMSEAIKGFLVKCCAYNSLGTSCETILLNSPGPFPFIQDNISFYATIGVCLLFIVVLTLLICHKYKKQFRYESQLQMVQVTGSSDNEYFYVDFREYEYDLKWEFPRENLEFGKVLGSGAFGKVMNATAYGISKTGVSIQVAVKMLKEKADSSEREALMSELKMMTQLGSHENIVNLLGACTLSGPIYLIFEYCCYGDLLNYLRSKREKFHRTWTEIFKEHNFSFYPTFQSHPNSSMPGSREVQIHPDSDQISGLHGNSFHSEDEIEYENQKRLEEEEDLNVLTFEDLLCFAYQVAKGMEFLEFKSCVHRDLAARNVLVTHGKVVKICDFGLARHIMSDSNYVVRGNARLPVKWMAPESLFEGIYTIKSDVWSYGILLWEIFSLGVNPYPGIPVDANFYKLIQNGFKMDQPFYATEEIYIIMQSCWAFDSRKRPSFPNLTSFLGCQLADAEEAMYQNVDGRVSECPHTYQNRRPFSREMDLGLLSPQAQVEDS

[4] = tested on: T2, Receptor-type tyrosine-protein kinase FLT3 (Homo sapiens), P36888 [K663Q]; test: as §1; conditions: at 10 µM
T2 sequence (whole entry): T1 sequence (whole entry) with K663Q, H835D

[5] = molecular target: Insulin-like growth factor 1 receptor (Homo sapiens, UniProt P08069); test: Selectivity interaction (KinomeScan (DiscoverX)) EUB0001619a IGF1R; conditions: at 1 µM
Sequence of Insulin-like growth factor 1 receptor (P08069 31-736 limits assumed): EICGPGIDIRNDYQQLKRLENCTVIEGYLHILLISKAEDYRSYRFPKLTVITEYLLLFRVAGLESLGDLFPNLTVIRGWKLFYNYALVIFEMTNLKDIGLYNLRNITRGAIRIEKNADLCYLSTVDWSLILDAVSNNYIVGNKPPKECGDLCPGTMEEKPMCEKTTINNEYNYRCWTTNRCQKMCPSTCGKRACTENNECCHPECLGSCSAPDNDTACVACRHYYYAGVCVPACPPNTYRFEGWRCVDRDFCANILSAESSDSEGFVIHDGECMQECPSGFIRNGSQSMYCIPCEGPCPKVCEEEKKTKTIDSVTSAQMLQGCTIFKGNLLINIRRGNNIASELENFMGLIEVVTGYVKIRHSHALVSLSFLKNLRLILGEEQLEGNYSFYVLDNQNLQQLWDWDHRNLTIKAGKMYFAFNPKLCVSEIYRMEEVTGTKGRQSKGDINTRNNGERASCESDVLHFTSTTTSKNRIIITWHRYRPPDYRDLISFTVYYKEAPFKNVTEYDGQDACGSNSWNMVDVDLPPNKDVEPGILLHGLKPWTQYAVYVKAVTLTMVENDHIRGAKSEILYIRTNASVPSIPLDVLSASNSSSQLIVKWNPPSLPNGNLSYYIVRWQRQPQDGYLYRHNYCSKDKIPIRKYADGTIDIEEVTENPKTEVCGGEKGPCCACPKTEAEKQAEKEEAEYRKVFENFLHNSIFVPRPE
Sequence of Insulin-like growth factor 1 receptor (P08069 741-1367 limits assumed): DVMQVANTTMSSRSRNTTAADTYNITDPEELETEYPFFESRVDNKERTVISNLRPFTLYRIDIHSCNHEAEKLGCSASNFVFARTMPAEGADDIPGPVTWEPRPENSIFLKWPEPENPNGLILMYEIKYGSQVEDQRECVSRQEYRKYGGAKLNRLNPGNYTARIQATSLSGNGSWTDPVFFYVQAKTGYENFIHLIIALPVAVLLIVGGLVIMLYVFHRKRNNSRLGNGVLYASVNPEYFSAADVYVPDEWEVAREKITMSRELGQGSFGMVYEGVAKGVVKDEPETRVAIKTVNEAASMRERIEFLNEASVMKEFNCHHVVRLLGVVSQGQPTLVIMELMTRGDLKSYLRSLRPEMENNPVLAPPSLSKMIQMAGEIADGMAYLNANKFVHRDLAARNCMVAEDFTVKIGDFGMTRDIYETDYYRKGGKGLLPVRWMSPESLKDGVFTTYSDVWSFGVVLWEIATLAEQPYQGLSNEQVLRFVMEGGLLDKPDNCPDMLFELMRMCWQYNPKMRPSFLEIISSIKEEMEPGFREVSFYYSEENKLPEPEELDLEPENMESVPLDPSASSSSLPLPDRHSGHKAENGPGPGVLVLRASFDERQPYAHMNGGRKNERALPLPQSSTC

[6] = molecular target: Serine/threonine-protein kinase Nek6 (Homo sapiens) (UniProt Q9HC98); test: Selectivity interaction (Kinase panel (KiNativ target engagement assay in Jurkat cells)) EUB0001635a NEK6; assay type: cell-based; conditions: Selectivity number of off-targets 0.0, Selectivity number of targets 233.0, Source Knowledge https://www.sciencedirect.com/science/article/pii/S2451945619300674?via%3Dihub, at 1 µM
Sequence of Serine/threonine-protein kinase Nek6 (Homo sapiens) (Q9HC98 whole entry): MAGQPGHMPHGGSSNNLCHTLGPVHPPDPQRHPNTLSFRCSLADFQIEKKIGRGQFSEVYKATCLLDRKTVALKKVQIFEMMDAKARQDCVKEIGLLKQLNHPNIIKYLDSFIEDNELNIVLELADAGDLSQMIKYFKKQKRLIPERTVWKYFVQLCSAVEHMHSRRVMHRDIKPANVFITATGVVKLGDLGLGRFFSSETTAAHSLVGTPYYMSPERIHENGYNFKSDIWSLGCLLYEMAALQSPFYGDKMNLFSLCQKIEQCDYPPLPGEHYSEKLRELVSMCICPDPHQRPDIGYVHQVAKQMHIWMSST

[7] = molecular target: CDK3/Cyclin E (Homo sapiens) (UniProt P24864+Q00526); test: (§2) Selectivity interaction (ProQinase) EUB0000171b CDK3; assay type: protein-complex assay
Sequence of CDK3/Cyclin E (Homo sapiens) (P24864 whole entry, looked up): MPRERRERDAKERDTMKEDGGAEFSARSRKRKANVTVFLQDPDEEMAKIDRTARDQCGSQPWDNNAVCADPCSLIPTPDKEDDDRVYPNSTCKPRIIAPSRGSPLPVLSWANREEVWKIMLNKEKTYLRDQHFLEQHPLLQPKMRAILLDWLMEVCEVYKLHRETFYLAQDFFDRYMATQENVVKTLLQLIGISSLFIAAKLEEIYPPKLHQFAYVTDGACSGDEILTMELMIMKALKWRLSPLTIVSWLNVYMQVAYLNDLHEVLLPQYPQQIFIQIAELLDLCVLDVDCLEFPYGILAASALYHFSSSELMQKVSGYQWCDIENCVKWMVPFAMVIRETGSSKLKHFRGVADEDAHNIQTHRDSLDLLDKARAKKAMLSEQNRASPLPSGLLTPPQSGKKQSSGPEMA
Sequence of CDK3/Cyclin E (Homo sapiens) (Q00526 whole entry, looked up): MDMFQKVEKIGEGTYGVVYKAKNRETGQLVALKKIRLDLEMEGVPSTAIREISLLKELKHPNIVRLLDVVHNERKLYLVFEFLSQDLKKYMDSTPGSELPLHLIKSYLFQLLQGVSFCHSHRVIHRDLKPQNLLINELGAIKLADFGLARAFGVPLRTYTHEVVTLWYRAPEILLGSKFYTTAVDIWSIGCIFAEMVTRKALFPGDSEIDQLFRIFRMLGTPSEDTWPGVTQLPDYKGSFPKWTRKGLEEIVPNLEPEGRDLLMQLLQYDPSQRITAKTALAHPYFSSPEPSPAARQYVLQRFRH

[8] = molecular target: Cyclin-dependent kinase 3/Cyclin-C (Homo sapiens) (UniProt Q00526+P24863); test: as §2; assay type: protein-complex assay
Sequence of Cyclin-dependent kinase 3/Cyclin-C (Homo sapiens) (P24863 whole entry, looked up): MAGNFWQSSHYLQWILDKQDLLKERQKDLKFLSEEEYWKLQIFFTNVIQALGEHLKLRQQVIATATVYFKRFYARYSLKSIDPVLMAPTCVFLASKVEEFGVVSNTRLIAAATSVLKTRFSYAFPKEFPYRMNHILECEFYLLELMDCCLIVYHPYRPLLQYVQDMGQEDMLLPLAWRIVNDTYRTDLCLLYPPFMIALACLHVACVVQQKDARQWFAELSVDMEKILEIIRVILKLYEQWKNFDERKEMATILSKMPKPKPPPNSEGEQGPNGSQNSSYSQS
Sequence of Cyclin-dependent kinase 3/Cyclin-C (Homo sapiens) (Q00526 whole entry, looked up): as the sequence (Q00526 whole entry, looked up) above

[9] = molecular target: T3, Dual specificity mitogen-activated protein kinase kinase 4 (Homo sapiens) (UniProt P45985); test: Selectivity interaction (KinomeScan (DiscoverX)) EUB0001049a MAP2K4; conditions: at 1 µM
T3 sequence (whole entry): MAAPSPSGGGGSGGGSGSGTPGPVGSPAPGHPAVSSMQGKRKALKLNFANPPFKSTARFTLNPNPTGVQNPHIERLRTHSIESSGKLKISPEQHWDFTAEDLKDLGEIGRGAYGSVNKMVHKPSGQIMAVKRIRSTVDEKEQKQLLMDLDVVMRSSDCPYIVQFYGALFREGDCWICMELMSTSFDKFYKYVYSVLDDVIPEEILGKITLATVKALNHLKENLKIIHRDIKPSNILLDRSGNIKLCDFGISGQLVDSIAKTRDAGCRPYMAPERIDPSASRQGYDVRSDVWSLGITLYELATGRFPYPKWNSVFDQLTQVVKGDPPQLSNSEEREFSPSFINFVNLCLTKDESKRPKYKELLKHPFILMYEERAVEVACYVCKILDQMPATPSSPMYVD

Structure (SMILES): CN(C)C/C=C/C(=O)Nc1ccc(C(=O)N2CCCC(Nc3ncc(Cl)c(-c4c[nH]c5ccccc45)n3)C2)cc1 (stereo unspecified)
% of control [1]: 95%

Structure (SMILES): CN(C)CCOc1ccc(-c2nc(-c3ccncc3)c(-c3ccc4c(c3)CC/C4=N\O)[nH]2)cc1
% of control [2]: 62%
% of control [3]: 85%
% of control [4]: 90%

Structure (SMILES): N#Cc1cccc(-c2c[nH]c3ncnc(N4CCOCC4)c23)c1
% of control [5]: 87%

Structure (SMILES): C=CC(=O)Nc1ccc(C(=O)Nc2[nH]nc3c2CN(C(=O)N[C@H](CN(C)C)c2ccccc2)C3(C)C)cc1
% of engagement [6]: 2.3%

% of control ([7]; at 1 µM): 98%
% of control ([7]; at 5 µM): 79%
% of control ([8]; at 1 µM): 91%
% of control ([8]; at 5 µM): 74%
Structure (SMILES): C=CC(=O)Nc1cccc(C(=O)Nc2ccc(Nc3cc(-c4[nH]c(SC)nc4C)ccn3)cc2)c1

Structure (SMILES): COc1cc(Nc2nc(C)cc(-c3cnn4nc(OC)ccc34)n2)cc(C(F)(F)F)c1
% of control [9]: 74%
